Assay results as given in ChEMBL document CHEMBL1201862, “PubChem BioAssay data set” (2004).
Counter-ions that a name gives are not always drawn. Each block holds one compound with its values, some of them ahead of it. Calls of active or inactive are those of the source.

Tests used:
[1] = molecular target: E3 ubiquitin-protein ligase Mdm2 (Homo sapiens, UniProt Q00987); experiment: enhancers of MDM2-luciferase reporter signal, concentration-effect titration, project on inhibitors of MDM2 ubiquitin ligase, cellular assay, luminescent readout, 384-well plate format (AID 1394); type: functional;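 further: MDM2 E3 inhibitors raise luminescence so EC50 is for signal enhancement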
Chain of E3 ubiquitin-protein ligase Mdm2 (Q00987 whole entry): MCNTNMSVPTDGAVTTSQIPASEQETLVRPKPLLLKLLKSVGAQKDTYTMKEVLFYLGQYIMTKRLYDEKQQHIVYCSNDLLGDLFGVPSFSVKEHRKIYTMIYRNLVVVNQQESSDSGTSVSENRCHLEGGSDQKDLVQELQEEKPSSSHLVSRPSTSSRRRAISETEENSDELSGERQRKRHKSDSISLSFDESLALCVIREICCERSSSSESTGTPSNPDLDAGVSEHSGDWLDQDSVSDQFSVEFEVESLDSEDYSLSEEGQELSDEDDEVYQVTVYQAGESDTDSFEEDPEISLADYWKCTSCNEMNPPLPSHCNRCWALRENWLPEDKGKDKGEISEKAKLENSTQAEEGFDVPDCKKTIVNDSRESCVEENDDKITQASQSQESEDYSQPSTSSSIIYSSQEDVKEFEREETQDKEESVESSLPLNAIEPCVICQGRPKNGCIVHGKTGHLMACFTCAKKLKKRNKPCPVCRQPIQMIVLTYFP

[2] = molecular target: T1, Tyrosine-protein phosphatase non-receptor type 7 (Homo sapiens, UniProt P35236); experiment: inhibitors of human HePTP phosphatase, […], biochemical, absorbance, leukemia target (AID 521); type: functional
T1 sequence (P35236 whole entry): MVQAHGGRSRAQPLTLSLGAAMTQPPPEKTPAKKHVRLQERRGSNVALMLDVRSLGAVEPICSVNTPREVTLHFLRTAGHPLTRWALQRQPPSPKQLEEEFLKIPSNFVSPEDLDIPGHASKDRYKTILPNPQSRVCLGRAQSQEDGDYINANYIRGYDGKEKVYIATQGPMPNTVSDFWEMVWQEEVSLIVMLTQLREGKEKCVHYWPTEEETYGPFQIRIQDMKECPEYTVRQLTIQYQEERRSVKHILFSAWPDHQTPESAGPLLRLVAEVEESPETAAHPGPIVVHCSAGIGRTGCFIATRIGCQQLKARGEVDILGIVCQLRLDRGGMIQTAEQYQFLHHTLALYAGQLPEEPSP

[3] = half-maximal inhibitory concentration for glucagon-like peptide-1 release, STC-1 cell line, dose-response (AID 1117345); type: functional, cell-based
[4] = Glucagon-like peptide 1 release potency, NCI-H716 cell line, dose-response, half-maximal inhibitory concentration (AID 1117344); type: functional, cell-based
[5] = inhibitors of Vif binding to APOBEC3G peptide, primary screen, biochemical, TR-FRET, GST-Vif 1-94, biotin-A3G peptide, dose response retest (AID 1117319); type: functional;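 further: TR-FRET signal of purified GST-Vif binding a biotinylated A3G peptide; inhibitors lower the FRET signal by blocking Vif and A3G binding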

EC50 [1]: 13.3 µM (not active)
Compound: Cc1nn(-c2nnc(NCc3ccccc3)nn2)c(C)c1Br

IC50 [2]: 4.15 µM (active)
Compound: O=C(CCSCCC(=O)NCc1ccco1)NCc1ccco1

Compound: CCN(CC)CCOC(=O)C(Cc1cccc2ccccc12)CC1CCCO1 (stereo not given) [NAFRONYL OXALATE]
IC50 [3]: > 40 µM (inactive)
IC50 [4]: > 40 µM (inactive)

IC50 [5]: > 100 µM (active)
Compound: COc1cc(O)oc1/C=N/c1ccccc1
